Literature values, collected in patent US10736937B2 (priority 2014, dated 2020).

System: Streptococcus pneumoniae
Conditions: mucosal administration; co-administrated with the pathogen or 2 to 24 h before bacterial challenge

## flagellin
  protection against Streptococcus pneumoniae lung infection: protect
